For this experiment, the system named is HCT116 cells. As to the kind of experiment: Cytotoxic activity: tumor cell proliferation assay (Alamar Blue). Format: cell-based. The note with it: Homo sapiens, HCT-116, 72 h with compound, Alamar Blue readout. Background: Resazurin is reduced to fluorescent resorufin, in cell work by metabolically active cells.
Experimental: The following section describes an assay that can be used to characterize compounds of the invention, e.g., to test for the cytotoxic activity of compounds on cells.
Human tumor cells, e.g., HCT116 cells, are seeded in a 96-well plate at 3.0×10^3 cells/well and grown in 100 μl of RPMI complete media (Invitrogen Corporation, Grand Island, N.Y., USA) containing 10% fetal bovine serum (Hyclone, Logan, Utah, USA) and 10 mM HEPES and at 37° C. for 16 h in an incubator with 5% CO2. To each well, 50 μl of additional growth media containing 20 μM to 60 nM concentrations of compound with 0.2% DMSO is added. Cells are grown for another 72 h at 37° C. 20 μl of Alamar Blue (Trek Diagnostic Systems, Inc., Cleveland, Ohio, USA) reagent is added to each well and incubated for 4 h at 37° C. Plates are read in a SpectraMax Gemini (Molecular Devices, CA, USA) with 544 nm excitation and 590 nm emission wavelength. IC50 values are determined by linear regression analysis of log drug concentration versus percent inhibition.
What is called IC50 is the point on the concentration scale where inhibition reaches its midpoint. Take `Cc1cccc(C)c1-c1cc(Nc2ccc(Oc3ccnc(C(F)(F)F)c3)cc2)nc(N)n1` [Example 335, 6-(2,6-dimethylphenyl)-N^4-(4-{[2-(trifluoromethyl)pyridin-4-yl]oxy}phenyl)pyrimidine-2,4-diamine]: the IC50 stood at 62 nM.

In the case of `Cc1cc(Oc2ccc(Nc3cc(-c4ccc(N)nc4)nc(N)n3)cc2)ccn1` [Example 336, 6-(6-aminopyridin-3-yl)-N^4-{4-[(2-methylpyridin-4-yl)oxy]phenyl}pyrimidine-2,4-diamine], the concentration for half-maximal inhibition (IC50) turned out to be 6 nM.

In the case of `Nc1nc(Nc2ccc(Oc3ccnc(C(F)(F)F)c3)cc2)cc(-c2cncnc2)n1` [Example 337, N^6-(4-{[2-(trifluoromethyl)pyridin-4-yl]oxy}phenyl)-4,5′-bipyrimidine-2,6-diamine], the IC50 is 135 nM.

In the case of `Nc1nc(Nc2ccc(Oc3ccnc(C(F)(F)F)n3)cc2)cc(-c2ccccc2)n1` [Example 338, 6-phenyl-N^4-(4-{[2-(trifluoromethyl)pyrimidin-4-yl]oxy}phenyl)pyrimidine-2,4-diamine], the 50% inhibitory concentration (IC50) was 17 nM.

With `Nc1ccc(-c2cc(Nc3ccc(Oc4ccnc(C(F)(F)F)n4)cc3)nc(N)n2)cn1` [Example 339, 6-(6-aminopyridin-3-yl)-N^4-(4-{[2-(trifluoromethyl)pyrimidin-4-yl]oxy}phenyl)pyrimidine-2,4-diamine], the concentration for half-maximal inhibition (IC50) was 3 nM.
